Assays:
P. aeruginosa PAO1 = experiment: Bacterial growth inhibition, wildtype PAO1; format: cell-based, Pseudomonas aeruginosa; conditions: high iron (200 µM FeCl3), 24 hrs
ΔpchE PAO1 = format: cell-based, Pseudomonas aeruginosa; conditions: high iron (200 µM FeCl3), 24 hrs
chorismate mutase EcCM = chorismate mutase EcCM (Escherichia coli, UniProt P0A9J8); format: biochemical, E. coli
ΔpvdA PAO1 = format: cell-based, Pseudomonas aeruginosa; conditions: high iron (200 µM FeCl3), 24 hrs
[1] = molecular target: isochorismate-pyruvate lyase PchB (Pseudomonas aeruginosa, UniProt Q51507); format: biochemical
Chain of isochorismate-pyruvate lyase PchB (Q51507 whole entry): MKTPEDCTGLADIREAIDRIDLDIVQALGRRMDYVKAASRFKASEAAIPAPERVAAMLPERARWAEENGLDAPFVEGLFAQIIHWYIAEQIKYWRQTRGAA

salicylate synthase Irp9 = salicylate synthase Irp9 (Yersinia enterocolitica, UniProt Q9X9I8); format: biochemical
Chain of salicylate synthase Irp9 (Q9X9I8 1-434): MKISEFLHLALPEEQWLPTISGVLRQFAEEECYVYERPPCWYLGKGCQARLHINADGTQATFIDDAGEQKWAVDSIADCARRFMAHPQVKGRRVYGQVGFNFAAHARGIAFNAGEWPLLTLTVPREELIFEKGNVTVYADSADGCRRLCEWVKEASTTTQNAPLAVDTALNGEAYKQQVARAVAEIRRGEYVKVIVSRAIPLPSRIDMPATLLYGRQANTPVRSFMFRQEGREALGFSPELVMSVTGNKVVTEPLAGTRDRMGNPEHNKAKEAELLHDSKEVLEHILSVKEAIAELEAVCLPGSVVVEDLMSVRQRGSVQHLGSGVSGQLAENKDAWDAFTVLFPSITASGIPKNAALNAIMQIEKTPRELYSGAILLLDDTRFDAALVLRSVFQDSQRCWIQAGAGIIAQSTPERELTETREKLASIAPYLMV

PchB = conditions: read-out: Ki PchB; cited from earlier work

Chain of chorismate mutase EcCM (P0A9J8 1-92): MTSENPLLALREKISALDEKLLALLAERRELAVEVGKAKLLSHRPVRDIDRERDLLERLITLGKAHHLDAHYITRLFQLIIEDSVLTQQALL

SMILES | EC50 growth inhibition PAO1 p.a. (P. aeruginosa PAO1) | EC50 growth inhibition ΔpchE p.a. (ΔpchE PAO1) | mode of inhibition of EcCM (chorismate mutase EcCM) | EC50 growth inhibition ΔpvdA p.a. (ΔpvdA PAO1) | mode of inhibition of PchB [1] | mode of inhibition of Irp9 (salicylate synthase Irp9) | Ki (PchB) [mM]
COC(=O)Oc1c([N+](=O)[O-])cc2oc(=O)sc2c1[N+](=O)[O-] [Compound 10] | did not cause growth inhibition | did not cause growth inhibition | competitive inhibitors | did not cause growth inhibition | competitive inhibitors | competitive inhibitor | –
O=P(O)(O)C12CC3CC(CC(C3)C1)C2 [adamantane-1-phosphonate] | – | – | – | – | – | – | > 5

— article PMC4254016 (Bioorganic & medicinal chemistry, 2014)
